Laboratory results published in patent publication EP0338756B1, “Use of 1,2,4-trioxanes as antiparasitics and anthelmintics” (OXACO S.A., priority 1988, dated 1989).

Columns and labels:
Onchocerca gutturosa [1] = test: Onchocerca gutturosa motility, using parasites, medium and drug; settings: medium and drug only, time not given
Procedure: Testing in vitro against Onchocerca gutturosa is a valid model for activity against Onchocerca volvulus. Testing of test drugs (Compounds 1, 2, 3, 4, 5, 7, 8, 9, 11, and 12 of Table 1) against the parasitic worms Onchocerca gutturosa was carried out in accordance with the method described in J Helminth (1987) 60, 271, firstly using parasites, medium, serum, cells and test drugs. Secondly, test drugs (Compounds 2, 3, 4, 7, 8, 9 and 12 of Table 1) were tested using parasites, medium and drug. […] However, between 4 and 7 days, all the tested Compounds had completely immobilized the worms. Under these conditions, commercial anti-helminthic drugs and artemisinin also cut motility by some 30-40%.

Onchocerca gutturosa [2] = test: Onchocerca gutturosa motility, using parasites, medium, serum, cells and test drugs; settings: with serum and cells
Procedure: Testing in vitro against Onchocerca gutturosa is a valid model for activity against Onchocerca volvulus. Testing of test drugs (Compounds 1, 2, 3, 4, 5, 7, 8, 9, 11, and 12 of Table 1) against the parasitic worms Onchocerca gutturosa was carried out in accordance with the method described in J Helminth (1987) 60, 271, firstly using parasites, medium, serum, cells and test drugs.

Onchocerca gutturosa [3] = test: Tetrazolium colorimetric test (formazan formation), using parasites, medium, cells and test drug; settings: 5x10⁻⁵ M printed for the test Compounds
Procedure: A suitable colorimetric assay uses formation of formazan, a blue dye, from tetrazolium cation generated by 3-[…] bromide (J Helminth (1987) 60, 271). Firstly, Compounds 1, 2, 3, 4, 5, 7, 8, 9, 11 and 12, along with artemisinin and arteether were tested using parasites, medium, cells and test drug.

`C[C@@H]1CC[C@H]2[C@@H](C)C(=O)O[C@@H]3O[C@@]4(C)CC[C@@H]1[C@]32OO4` [artemisinin, Artemisinin] was tested, and the cut motility (Onchocerca gutturosa [1]) was 30-40% and the effect on motility (Onchocerca gutturosa [2]; a day's exposure) was “ineffective”.
Compound `CCO[C@H]1O[C@@H]2O[C@@]3(C)CC[C@H]4[C@H](C)CC[C@@H]([C@H]1C)[C@@]24OO3` [arteether] has a reduced motility (Onchocerca gutturosa [2]; after a day) of 30%.
In the case of `CC1(C)OO[C@]2(c3ccccc3)CCC(c3ccccc3)=C[C@@H]2O1` (relative stereo) [Compound 12], the “inhibition of formazan formation” value (Onchocerca gutturosa [3]) is reported as “more than 90%”, the reduced motility (Onchocerca gutturosa [2]; after 7 days) is reported as 100% and the effect on motility (Onchocerca gutturosa [2]; two to three days exposure) is reported as “markedly inhibitory”.
